Columns and labels:
[1] = target: 5-hydroxytryptamine receptor 2B (Homo sapiens, UniProt P41595); test: Displacement of [3H]-ketanserin from human 5-HT2B receptor by competitive radioligand binding assay
[2] = target: 5-hydroxytryptamine receptor 7 (Rattus norvegicus, UniProt P32305); test: Displacement of [3H]-CT from rat 5-HT7 receptor expressed in HEK293 cells by competitive radioligand binding assay; format: cell-based
[3] = target: T1, Adrenergic receptor alpha-1 (Rattus norvegicus, UniProt P15823+P23944+P43140); test: Displacement of […] from alpha1 adrenergic receptor in rat cortex membrane incubated for 60 mins by competitive radioligand binding assay; format: cell membranes
T1 sequence (P15823 whole entry): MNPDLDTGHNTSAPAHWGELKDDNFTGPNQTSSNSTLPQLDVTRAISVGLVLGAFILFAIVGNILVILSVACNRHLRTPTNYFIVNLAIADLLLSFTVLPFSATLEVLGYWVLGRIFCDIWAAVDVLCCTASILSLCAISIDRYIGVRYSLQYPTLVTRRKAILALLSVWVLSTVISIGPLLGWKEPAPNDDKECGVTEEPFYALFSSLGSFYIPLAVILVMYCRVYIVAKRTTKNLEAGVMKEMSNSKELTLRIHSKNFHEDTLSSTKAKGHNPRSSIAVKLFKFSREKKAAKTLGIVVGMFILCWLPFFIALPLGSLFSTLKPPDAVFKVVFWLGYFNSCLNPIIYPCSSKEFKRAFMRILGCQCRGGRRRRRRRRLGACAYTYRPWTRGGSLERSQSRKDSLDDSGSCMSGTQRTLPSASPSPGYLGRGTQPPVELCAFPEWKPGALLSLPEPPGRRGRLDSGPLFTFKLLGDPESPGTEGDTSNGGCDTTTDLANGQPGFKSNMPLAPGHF
T1 sequence (P23944 whole entry): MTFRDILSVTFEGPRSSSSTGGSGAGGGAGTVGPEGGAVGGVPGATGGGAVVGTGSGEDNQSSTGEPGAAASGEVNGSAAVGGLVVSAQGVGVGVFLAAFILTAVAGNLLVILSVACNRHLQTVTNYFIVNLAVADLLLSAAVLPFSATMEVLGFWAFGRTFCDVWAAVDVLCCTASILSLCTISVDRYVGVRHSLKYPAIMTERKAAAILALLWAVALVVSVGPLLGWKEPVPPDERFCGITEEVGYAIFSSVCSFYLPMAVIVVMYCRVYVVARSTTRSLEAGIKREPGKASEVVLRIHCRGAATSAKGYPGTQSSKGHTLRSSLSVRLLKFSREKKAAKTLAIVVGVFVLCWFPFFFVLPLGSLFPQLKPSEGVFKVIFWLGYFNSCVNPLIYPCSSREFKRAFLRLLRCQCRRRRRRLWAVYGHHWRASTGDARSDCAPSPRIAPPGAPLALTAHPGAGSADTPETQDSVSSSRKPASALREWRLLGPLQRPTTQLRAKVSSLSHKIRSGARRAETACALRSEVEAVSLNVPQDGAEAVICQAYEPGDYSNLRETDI
T1 sequence (P43140 whole entry): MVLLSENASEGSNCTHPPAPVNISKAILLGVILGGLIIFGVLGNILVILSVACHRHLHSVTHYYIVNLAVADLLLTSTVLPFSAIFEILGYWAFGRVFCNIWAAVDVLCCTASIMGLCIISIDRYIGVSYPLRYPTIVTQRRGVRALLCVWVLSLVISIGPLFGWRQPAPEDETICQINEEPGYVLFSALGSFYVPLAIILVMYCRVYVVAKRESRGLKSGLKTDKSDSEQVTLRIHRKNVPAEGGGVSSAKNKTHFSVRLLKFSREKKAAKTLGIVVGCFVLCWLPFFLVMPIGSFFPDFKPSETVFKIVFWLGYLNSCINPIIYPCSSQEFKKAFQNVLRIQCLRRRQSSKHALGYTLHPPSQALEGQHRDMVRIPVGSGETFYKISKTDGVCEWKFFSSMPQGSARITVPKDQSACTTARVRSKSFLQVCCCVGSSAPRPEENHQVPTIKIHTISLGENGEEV

[4] = target: 5-hydroxytryptamine receptor 2A (Homo sapiens, UniProt P28223); test: Displacement of [3H]-ketanserin from human 5-HT2A receptor by competitive radioligand binding assay
[5] = target: T2, 5-hydroxytryptamine receptor 2C (Homo sapiens, UniProt P28335); test: Displacement of [3H]-ketanserin from human 5-HT2C receptor by competitive radioligand binding assay
T2 sequence (P28335 whole entry): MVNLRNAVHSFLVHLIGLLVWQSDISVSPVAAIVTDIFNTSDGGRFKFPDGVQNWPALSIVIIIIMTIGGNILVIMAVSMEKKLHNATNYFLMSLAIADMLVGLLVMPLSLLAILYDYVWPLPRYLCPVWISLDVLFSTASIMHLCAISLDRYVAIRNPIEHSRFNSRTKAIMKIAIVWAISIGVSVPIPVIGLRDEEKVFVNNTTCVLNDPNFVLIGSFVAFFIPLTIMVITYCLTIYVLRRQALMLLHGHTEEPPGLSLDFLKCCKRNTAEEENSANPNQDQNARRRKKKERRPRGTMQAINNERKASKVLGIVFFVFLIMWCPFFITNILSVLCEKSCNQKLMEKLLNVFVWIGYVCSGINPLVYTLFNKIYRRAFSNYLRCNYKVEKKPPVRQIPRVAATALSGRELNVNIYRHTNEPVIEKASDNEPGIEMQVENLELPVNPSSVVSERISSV

Chain of 5-hydroxytryptamine receptor 2B (P41595 whole entry): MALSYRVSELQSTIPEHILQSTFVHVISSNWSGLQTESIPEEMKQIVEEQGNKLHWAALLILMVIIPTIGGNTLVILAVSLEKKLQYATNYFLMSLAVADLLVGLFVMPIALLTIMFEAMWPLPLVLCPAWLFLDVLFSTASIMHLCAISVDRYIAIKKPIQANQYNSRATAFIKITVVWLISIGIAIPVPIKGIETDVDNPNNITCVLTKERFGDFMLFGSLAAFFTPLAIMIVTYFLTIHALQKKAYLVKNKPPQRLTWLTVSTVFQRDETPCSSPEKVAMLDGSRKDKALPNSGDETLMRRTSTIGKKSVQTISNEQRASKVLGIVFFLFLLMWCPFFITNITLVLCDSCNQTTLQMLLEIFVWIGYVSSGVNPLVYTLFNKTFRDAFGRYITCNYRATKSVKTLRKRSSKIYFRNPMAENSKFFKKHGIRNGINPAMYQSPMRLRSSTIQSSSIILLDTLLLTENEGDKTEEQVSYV
Chain of 5-hydroxytryptamine receptor 7 (P32305 whole entry): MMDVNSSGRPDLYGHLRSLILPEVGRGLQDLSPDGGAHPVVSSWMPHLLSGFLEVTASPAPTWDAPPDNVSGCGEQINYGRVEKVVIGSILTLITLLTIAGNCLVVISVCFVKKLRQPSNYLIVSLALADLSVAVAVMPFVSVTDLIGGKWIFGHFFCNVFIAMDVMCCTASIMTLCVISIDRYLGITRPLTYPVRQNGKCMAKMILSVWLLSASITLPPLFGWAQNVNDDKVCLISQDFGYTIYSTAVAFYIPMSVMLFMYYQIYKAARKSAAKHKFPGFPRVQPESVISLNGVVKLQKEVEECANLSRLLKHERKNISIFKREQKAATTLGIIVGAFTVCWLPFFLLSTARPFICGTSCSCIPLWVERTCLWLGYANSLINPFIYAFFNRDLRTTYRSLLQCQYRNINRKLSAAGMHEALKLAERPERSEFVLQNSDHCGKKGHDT
Chain of 5-hydroxytryptamine receptor 2A (P28223 whole entry): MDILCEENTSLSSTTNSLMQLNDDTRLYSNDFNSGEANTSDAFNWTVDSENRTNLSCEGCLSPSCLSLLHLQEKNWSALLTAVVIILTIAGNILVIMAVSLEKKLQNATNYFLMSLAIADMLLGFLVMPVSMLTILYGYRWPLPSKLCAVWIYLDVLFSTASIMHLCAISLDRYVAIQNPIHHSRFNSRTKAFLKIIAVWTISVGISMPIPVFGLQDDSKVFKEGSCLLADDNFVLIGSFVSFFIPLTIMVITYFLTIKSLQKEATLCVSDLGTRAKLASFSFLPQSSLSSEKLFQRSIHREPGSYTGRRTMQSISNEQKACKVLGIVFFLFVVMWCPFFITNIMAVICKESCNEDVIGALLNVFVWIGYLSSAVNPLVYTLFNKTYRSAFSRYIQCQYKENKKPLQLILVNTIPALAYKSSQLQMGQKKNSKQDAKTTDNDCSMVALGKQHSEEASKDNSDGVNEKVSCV

Ki [1] [nM] | Ki [2] [nM] | Ki [3] [nM] | Ki [4] [nM] | Ki [5] [nM] | SMILES
5 | 15 | 130 | 2 |  | CC(C)n1nc2c(c1-c1ccc(C(F)(F)F)cc1)CCNCC2
19 | 28 | 530 | 24 | 130 | CC(C)n1nc2c(c1-c1ccccc1)CCNCC2

More lines, now with the values behind:

SMILES | Ki [1] [nM] | Ki [2] [nM] | Ki [3] [nM] | Ki [4] [nM] | Ki [5] [nM]
Fc1ccc(-c2c3c(nn2C2CC2)CCNCC3)cc1 |  |  |  | 6 | 
CNc1ccc(-c2c3c(nn2C(C)C)CCNCC3)cc1 | 24 | 40 | 16 | 3 | 210
c1ccc(-c2c3c(nn2C2CC2)CCNCC3)cc1 | 20 | 20 | 600 | 30 | 30

Reference: ChEMBL document CHEMBL4673280, “Discovery and SAR studies of 2-alkyl-3-phenyl-2,4,5,6,7,8-hexahydropyrazolo[3,4-d]azepines as 5-HT inhibitors leading to the identification of a clinical candidate” (Bioorg Med Chem Lett, 2021)
